Laboratory results published in patent US9216968B2, “Heterocyclic derivative and pharmaceutical drug” (NIPPON SHINYAKU CO., LTD., priority 2011, dated 2015).
Structures can show the parent of a compound that is named as a salt.

What was measured:
[1] = system: A549 cells; test: Inhibition of PGE2 production in A549 cell (IL-1β stimulated); format: cell-based, human; settings: Homo sapiens, A549, 24 h, IL-1β 5 ng/well, PGE2 in culture medium
In short: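 After IL-1β (5 ng/well) stimulation for 24 h at 37 °C, following a 60-min compound pretreatment in RPMI with 3% FBS, medium PGE2 (HTRF) and PGF2α (EIA) from human A549 cells were quantified. 100% activity set as IL-1β-induced minus basal production; IC50 calculated.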

[2] = biological target: human mPGES-1 (Homo sapiens (Human), UniProt O14684); test: mPGES-1 inhibiting activity (microsome fractions, PGE2 by HTRF); format: biochemical; settings: microsomes from CHO-K1 cells transfected with human mPGES-1; PGH2 1 μM, 4° C., 60 seconds; read-out: mPGES-1 Inhibition IC50
Sequence of human mPGES-1 (O14684 whole entry): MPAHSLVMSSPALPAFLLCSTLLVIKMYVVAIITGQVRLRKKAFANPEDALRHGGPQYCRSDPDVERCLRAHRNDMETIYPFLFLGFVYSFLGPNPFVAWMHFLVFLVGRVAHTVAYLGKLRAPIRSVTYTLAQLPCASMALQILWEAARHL
In short: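 PGE2 formation read by HTRF after 60 s at 4 °C with 1 μM PGH2 substrate, following 20 min compound preincubation (1% DMSO) with human mPGES-1 microsomes from transfected CHO-K1 cells. Buffer: potassium phosphate, reduced glutathione, pH 7.4; IC50 from activity relative to enzyme-free blank.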

Cc1c(Cl)cccc1NC(=O)c1cc(NC(=O)c2c(F)cccc2Cl)cc2[nH]c(NCCOC(C)(C)C)nc12 [Example 195, 2-[(2-tert-Butoxyethyl)amino]-6-{[(2-chloro-6-fluorophenyl)carbonyl]amino}-N-(3-chloro-2-methylphenyl)-1H-benzimidazole-4-carboxamide hydrochloride]
IC50 [1]: 17.2 nM
IC50 [2]: 2.3 nM

Cc1c(Cl)cccc1NC(=O)c1cc(NC(=O)c2ccccc2C(F)(F)F)cc2[nH]c(NCCCN(C)C)nc12 [Example 153, N-(3-Chloro-2-methylphenyl)-2-{[3-(dimethylamino)propyl]amino}-6-({[2-(trifluoromethyl)phenyl]carbonyl}amino)-1H-benzimidazole-4-carboxamide hydrochloride]
IC50 [1]: 618 nM
IC50 [2]: 22.3 nM

Cc1c(Cl)cccc1NC(=O)c1cc(NC(=O)c2ccccc2C(F)(F)F)cc2[nH]c(N)nc12 [Example 157, 2-Amino-N-(3-chloro-2-methylphenyl)-6-({[2-(trifluoromethyl)phenyl]carbonyl}amino)-1H-benzimidazole-4-carboxamide hydrochloride]
IC50 [1]: 10900 nM
IC50 [2]: 3.9 nM

Cc1c(Cl)cccc1NC(=O)c1cc(NC(=O)c2ccccc2C(F)(F)F)cc2[nH]c(NCCOC(C)C)nc12 [Example 175, N-(3-Chloro-2-methylphenyl)-2-{[2-(propan-2-yloxy)ethyl]amino}-6-({[2-(trifluoromethyl)phenyl]carbonyl}amino)-1H-benzimidazole-4-carboxamide hydrochloride]
IC50 [1]: 144 nM
IC50 [2]: 3.6 nM

Cc1c(Cl)cccc1NC(=O)c1cc(NC(=O)c2ccccc2C(F)(F)F)cc2c1OCC2 [Example 8, N-(3-Chloro-2-methylphenyl)-5-({[2-(trifluoromethyl)phenyl]carbonyl}amino)-2,3-dihydro-1-benzofuran-7-carboxamide]
IC50 [1]: 106 nM
IC50 [2]: 160 nM

COCc1nc2c(C(=O)Nc3cccc(C#N)c3C)cc(NC(=O)c3ccccc3C(F)(F)F)cc2[nH]1 [Example 41, N-(3-Cyano-2-methylphenyl)-2-(methoxymethyl)-6-({[2-(trifluoromethyl)phenyl]carbonyl}amino)-1H-benzimidazole-4-carboxamide]
IC50 [1]: 145 nM
IC50 [2]: 52.5 nM

Cc1c(Cl)cccc1NC(=O)c1cc(NC(=O)c2ccccc2C(F)(F)F)cc2[nH]c(N(C)C)nc12 [Example 145, N-(3-Chloro-2-methylphenyl)-2-(dimethylamino)-6-({[2-(trifluoromethyl)phenyl]carbonyl}amino)-1H-benzimidazole-4-carboxamide hydrochloride]
IC50 [1]: 13 nM
IC50 [2]: 1.6 nM

Cc1c(Cl)cccc1NC(=O)c1cc(NC(=O)c2ccccc2C(F)(F)F)cc2[nH]c([S+](C)[O-])nc12 (centres unmarked) [Example 181, N-(3-Chloro-2-methylphenyl)-2-(methylsulfinyl)-6-({[2-(trifluoromethyl)phenyl]carbonyl}amino)-1H-benzimidazole-4-carboxamide]
IC50 [1]: 705 nM
IC50 [2]: 1.1 nM

COCc1nc2c(C(=O)Nc3cccc(Cl)c3C)cc(NC(=O)c3cc(F)ccc3Cl)cc2[nH]1 [Example 94, 6-{[(2-Chloro-5-fluorophenyl)carbonyl]amino}-N-(3-chloro-2-methylphenyl)-2-(methoxymethyl)-1H-benzimidazole-4-carboxamide hydrochloride]
IC50 [1]: 182 nM
IC50 [2]: 9.1 nM

Cc1c(Cl)cccc1NC(=O)c1cc(NC(=O)c2ccccc2C(F)(F)F)cc2[nH]c(N3CCCC3)nc12 [Example 164, N-(3-Chloro-2-methylphenyl)-2-(pyrrolidin-1-yl)-6-({[2-(trifluoromethyl)phenyl]carbonyl}amino)-1H-benzimidazole-4-carb oxamide hydrochloride]
IC50 [1]: 13.3 nM
IC50 [2]: 0.3 nM

NC(=O)Cc1nc2c(C(=O)NCc3ccccc3C(F)(F)F)cc(NC(=O)c3ccccc3C(F)(F)F)cc2[nH]1 [Example 45, 2-(2-Amino-2-oxoethyl)-N-[2-(trifluoromethyl)benzyl]-6-({[2-(trifluoromethyl)phenyl]carbonyl}amino)-1H-benzimidazole-4-carboxamide hydrochloride]
IC50 [1]: 2080 nM
IC50 [2]: 4.9 nM

COCc1nc2c(C(=O)Nc3ccc4c(c3)CCC4)cc(NC(=O)c3ccccc3C(F)(F)F)cc2[nH]1 [Example 33, N-(2,3-Dihydro-1H-inden-5-yl)-2-(methoxymethyl)-6-({[2-(trifluoromethyl)phenyl]carbonyl}amino)-1H-benzimidazole-4-carboxamide hydrochloride]
IC50 [1]: 33.6 nM
IC50 [2]: 3 nM

Cc1nc2c(C(=O)Nc3cccc(Cl)c3C)cc(NC(=O)c3ccccc3C(F)(F)F)cc2[nH]1 [Example 14, N-(3-Chloro-2-methylphenyl)-2-methyl-6-({[2-(trifluoromethyl)phenyl]carbonyl}amino)-1H-benzimidazole-4-carboxamide hydrochloride]
IC50 [1]: 15.2 nM
IC50 [2]: 3.8 nM

COC(C)(C)CNc1nc2c(C(=O)Nc3cccc(Cl)c3C)cc(NC(=O)c3ccccc3C(F)(F)F)cc2[nH]1 [Example 177, N-(3-Chloro-2-methylphenyl)-2-[(2-methoxy-2-methylpropyl)amino]-6-({[2-(trifluoromethyl)phenyl]carbonyl}amino)-1H-benz imidazole-4-carboxamide hydrochloride]
IC50 [1]: 45.2 nM
IC50 [2]: 8.3 nM

CC(=O)N1CC(c2nc3c(C(=O)Nc4cccc(Cl)c4C)cc(NC(=O)c4ccccc4C(F)(F)F)cc3[nH]2)C1 [Example 68, 2-(1-Acetylazetidin-3-yl)-N-(3-chloro-2-methylphenyl)-6-({[2-(trifluoromethyl)phenyl]carbonyl}amino)-1H-benzimidazole-4-carboxamide hydrochloride]
IC50 [1]: > 10000 nM
IC50 [2]: 63.4 nM

CCN(CC)CCNc1nc2c(C(=O)Nc3cccc(Cl)c3C)cc(NC(=O)c3ccccc3C(F)(F)F)cc2[nH]1 [Example 151, N-(3-Chloro-2-methylphenyl)-2-{[2-(diethylamino)ethyl]amino}-6-({[2-(trifluoromethyl)phenyl]carbonyl}amino)-1H-benzimidazole-4-carboxamide hydrochloride]
IC50 [1]: 328 nM
IC50 [2]: 11.6 nM

Cc1c(Cl)cccc1NC(=O)c1cc(NC(=O)c2cc(C#CC3CC3)ccc2Cl)cc2[nH]c(N(C)C)nc12 [Example 188, 6-({[2-Chloro-5-(cyclopropylethynyl)phenyl]carbonyl}amino)-N-(3-chloro-2-methylphenyl)-2-(dimethylamino)-1H-benzimidazole-4-carboxamide hydrochloride]
IC50 [1]: 1020 nM
IC50 [2]: 457 nM

COCc1nc2c(C(=O)Nc3nc4ccccc4o3)cc(NC(=O)c3ccccc3C(F)(F)F)cc2[nH]1 [Example 232, N-(1,3-Benzoxazol-2-yl)-2-(methoxymethyl)-6-({[2-(trifluoromethyl)phenyl]carbonyl}amino)-1H-benzimidazole-4-carboxamide hydrochloride]
IC50 [1]: 125 nM
IC50 [2]: 7.7 nM

COCc1nc2c(C(=O)Nc3ccc(C)c(C)c3)cc(NC(=O)c3ccccc3C(F)(F)F)cc2[nH]1 [Example 31, N-(3,4-Dimethylphenyl)-2-(methoxymethyl)-6-({[2-(trifluoromethyl)phenyl]carbonyl}amino)-1H-benzimidazole-4-carboxamide hydrochloride]
IC50 [1]: 69 nM
IC50 [2]: 4.1 nM

COC1CN(c2nc3c(C(=O)Nc4cccc(Cl)c4C)cc(NC(=O)c4ccccc4C(F)(F)F)cc3[nH]2)C1 [Example 166, N-(3-Chloro-2-methylphenyl)-2-(3-methoxyazetidin-1-yl)-6-({[2-(trifluoromethyl)phenyl]carbonyl}amino)-1H-benzimidazole-4-carboxamide hydrochloride]
IC50 [1]: 29 nM
IC50 [2]: 3.2 nM

COCC(C)(C)c1nc2c(C(=O)Nc3cccc(Cl)c3C)cc(NC(=O)c3ccccc3C(F)(F)F)cc2[nH]1 [Example 75, N-(3-Chloro-2-methylphenyl)-2-(1-methoxy-2-methylpropan-2-yl)-6-({[2-(trifluoromethyl)phenyl]carbonyl}amino)-1H-benzimidazole-4-carboxamide hydrochloride]
IC50 [1]: 19.7 nM
IC50 [2]: 31.7 nM

Cc1c(Cl)cccc1NC(=O)c1cc(NC(=O)c2ccccc2C(F)(F)F)cc2[nH]c(N(CCO)CCO)nc12 [Example 144, 2-[Bis(2-hydroxyethyl)amino]-N-(3-chloro-2-methylphenyl)-6-({[2-(trifluoromethyl)phenyl]carbonyl}amino)-1H-benzimidazole-4-carboxamide hydrochloride]
IC50 [1]: 2990 nM
IC50 [2]: 9.7 nM

Cc1c(Cl)cccc1NC(=O)c1cc(NC(=O)c2ccccc2C(F)(F)F)cc2[nH]c([C@H]3CCCN3C(=O)OC(C)(C)C)nc12 [Example 70, tert-Butyl (2R)-2-{4-[(3-chloro-2-methylphenyl)carbamoyl]-6-({[2-(trifluoromethyl)phenyl]carbonyl}amino)-1H-benzimidazol-2-yl}pyrrolidine-1-carboxylate]
IC50 [1]: 147 nM
IC50 [2]: 4.6 nM

Cc1nc2c(C(=O)NCc3ccccc3C(F)(F)F)cc(NC(=O)c3ccccc3C(F)(F)F)cc2o1 [Example 53, 2-Methyl-N-[2-(trifluoromethyl)benzyl]-6-({[2-(trifluoromethyl)phenyl]carbonyl}amino)-1,3-benzoxazole-4-carboxamide]
IC50 [1]: 280 nM
IC50 [2]: 179 nM

COCc1nc2c(C(=O)Nc3cccc(Cl)c3C)cc(NC(=O)c3c(Cl)cccc3C(F)(F)F)cc2[nH]1 [Example 113, N-(3-Chloro-2-methylphenyl)-6-({[2-chloro-6-(trifluoromethyl)phenyl]carbonyl}amino)-2-(methoxymethyl)-1H-benzimidazole-4-carboxamide hydrochloride]
IC50 [1]: 1.2 nM
IC50 [2]: ≤ 0.1 nM
